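Values below derive from 48-hour exposures of cells grown in 96-well plates, with endpoints linearly interpolated between the two concentrations bracketing the appropriate inhibition level. TGI: total growth inhibition.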
What was measured:
Test in all cases: NCI tumour cell line growth inhibition, 48 h
786-0 renal = test system: 786-0 renal
A498 renal = test system: A498 renal
BT-549 breast = test system: BT-549 breast
COLO 205 colon = test system: COLO 205 colon
DU-145 prostate = test system: DU-145 prostate
HCT-15 colon = test system: HCT-15 colon
HL-60(TB) leukemia = test system: HL-60(TB) leukemia
KM12 colon = test system: KM12 colon
LOX IMVI melanoma = test system: LOX IMVI melanoma
M14 melanoma = test system: M14 melanoma
MCF7 breast = test system: MCF7 breast
MDA-MB-231 breast = test system: MDA-MB-231 breast
RXF 393 renal = test system: RXF 393 renal
SF-295 CNS = test system: SF-295 CNS
SK-MEL-28 melanoma = test system: SK-MEL-28 melanoma
T-47D breast = test system: T-47D breast

SMILES | TGI (786-0 renal) [µM] | TGI (A498 renal) [µM] | TGI (BT-549 breast) [µM] | TGI (COLO 205 colon) [µM] | TGI (DU-145 prostate) [µM] | TGI (HCT-15 colon) [µM] | TGI (HL-60(TB) leukemia) [µM] | TGI (KM12 colon) [µM] | TGI (LOX IMVI melanoma) [µM] | TGI (M14 melanoma) [µM] | TGI (MCF7 breast) [µM] | TGI (MDA-MB-231 breast) [µM] | TGI (RXF 393 renal) [µM] | TGI (SF-295 CNS) [µM] | TGI (SK-MEL-28 melanoma) [µM] | TGI (T-47D breast) [µM]
Cc1cn(CCCCCOC(=O)NC(CCCN=C(N)N)C(=O)O)c(=O)[nH]c1=O (stereo not given) | > 100 | 74.3 | > 100 | 63.2 | > 100 | > 100 | > 100 | > 100 | > 100 | > 100 | > 100 | > 100 | > 100 | > 100 | > 100 | > 100
CCCCn1c(C)c2c(c1C)C(=O)N(CC(O)CN1CCc3ccccc3C1)C2=O (stereo not given) | > 100 | > 100 | > 100 | > 100 | > 100 | > 100 | > 100 | > 100 | > 100 | > 100 | > 100 | > 100 | > 100 | > 100 | > 100 | > 100
O=C(O)CCN(CCC(=O)O)c1ccc(/C=C2\SC(=S)NC2=O)cc1 | > 100 | > 100 | > 100 | > 100 | > 100 | > 100 | > 100 | > 100 | > 100 | > 100 | > 100 | > 100 | > 100 | > 100 | > 100 | > 100
C[C@H]1C2Cc3cc(N)ccc3[C@@]1(C)CCN2CCc1ccccc1 | > 100 | > 100 | > 100 | 32.9 | > 100 | > 100 | 87.7 | > 100 | 41.2 | 40 | 94.1 | > 100 | > 100 | 98.8 | > 100 | > 100
Cc1ccc(-c2cc(-c3ccc(Cl)cc3)nc(/N=C3\C(=O)N(CN4CCOCC4)c4ccc(Cl)cc43)n2)cc1 | 44.5 | 56.7 | > 100 | 49.7 | 47.7 | > 100 | 41.4 | 56.8 | > 100 | > 100 | 79.2 | > 100 | 26.9 | > 100 | > 100 | 79.8

— PubChem BioAssay (NCI)
